Activity calls are given as the source filed them. No stated cut-off is given here; in the data, actives have a measured IC50 and inactives only a lower limit.
Target: Envelope glycoprotein gp160 (Human immunodeficiency virus 1, UniProt Q6QLK5)
Assay: inhibitors of HIV fusion peptide binding, primary screen, biochemical, uHTS, fluorescence dequenching (AID 1986)

Envelope glycoprotein gp160, sequence (Q6QLK5 whole entry, the tested form may be a part): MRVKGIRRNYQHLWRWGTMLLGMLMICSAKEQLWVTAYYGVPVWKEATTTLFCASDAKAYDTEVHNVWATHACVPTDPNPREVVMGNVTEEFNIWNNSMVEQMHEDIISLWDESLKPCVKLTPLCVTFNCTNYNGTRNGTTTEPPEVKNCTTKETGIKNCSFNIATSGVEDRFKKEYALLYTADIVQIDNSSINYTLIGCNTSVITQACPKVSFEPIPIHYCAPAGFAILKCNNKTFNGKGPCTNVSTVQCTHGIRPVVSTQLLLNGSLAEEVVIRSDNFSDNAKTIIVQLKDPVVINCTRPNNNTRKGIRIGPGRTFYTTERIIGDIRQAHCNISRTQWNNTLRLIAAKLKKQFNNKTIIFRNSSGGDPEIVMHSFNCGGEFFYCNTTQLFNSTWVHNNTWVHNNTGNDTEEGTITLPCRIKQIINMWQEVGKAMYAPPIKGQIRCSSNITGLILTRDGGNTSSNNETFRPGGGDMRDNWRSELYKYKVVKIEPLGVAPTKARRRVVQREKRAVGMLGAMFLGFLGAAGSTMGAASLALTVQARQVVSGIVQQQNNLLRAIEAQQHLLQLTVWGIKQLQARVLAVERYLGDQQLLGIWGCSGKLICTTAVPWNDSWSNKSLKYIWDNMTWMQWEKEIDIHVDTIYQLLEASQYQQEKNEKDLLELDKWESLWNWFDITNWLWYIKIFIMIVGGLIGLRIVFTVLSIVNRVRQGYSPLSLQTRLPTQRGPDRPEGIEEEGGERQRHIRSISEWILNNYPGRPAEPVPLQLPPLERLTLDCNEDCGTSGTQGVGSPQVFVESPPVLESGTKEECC

**Q.** O=C(O)c1ccc(-c2ccc(/C=C3\NC(=O)N(Cc4ccc(Cl)cc4)C3=O)o2)cc1Cl was tested. Which IC50 did it give?
**A.** 10.7 µM (active)

**Q.** For Cc1cc(N2C(=O)C(O)=C(C(=O)c3ccc(C)o3)C2c2cccc(Oc3ccccc3)c2)no1 (stereo not given), which IC50 is on record?
**A.** 24.1 µM (active)

**Q.** For Cc1cc(N2C(=O)C(O)=C(C(=O)c3cc4ccccc4o3)C2c2ccc(Cl)cc2)no1 (stereo not given), which IC50 is on record?
**A.** 15.9 µM (active)

**Q.** For CCOC(=O)c1sc(N2C(=O)C(O)=C(C(=O)c3ccc(C)o3)C2c2cccc([N+](=O)[O-])c2)nc1C (stereo not given), which IC50 is on record?
**A.** 17.6 µM (active)

**Q.** Which IC50 does the source give for COc1cccc(C2C3=C(N=c4s/c(=C\c5ccc(OCC(=O)O)cc5)c(=O)n42)c2ccccc2CC3)c1 (stereo not given) here?
**A.** 18.6 µM (active)
